Assay results from ChEMBL document CHEMBL1201862, “PubChem BioAssay data set” (2004).
Where a name gives a salt, the structure may show the parent alone. Calls of active or inactive are those of the source.

What was measured:
[1] = biological target: T1, Protein skinhead-1 (Caenorhabditis elegans, UniProt P34707); format: functional
T1 sequence (P34707 whole entry): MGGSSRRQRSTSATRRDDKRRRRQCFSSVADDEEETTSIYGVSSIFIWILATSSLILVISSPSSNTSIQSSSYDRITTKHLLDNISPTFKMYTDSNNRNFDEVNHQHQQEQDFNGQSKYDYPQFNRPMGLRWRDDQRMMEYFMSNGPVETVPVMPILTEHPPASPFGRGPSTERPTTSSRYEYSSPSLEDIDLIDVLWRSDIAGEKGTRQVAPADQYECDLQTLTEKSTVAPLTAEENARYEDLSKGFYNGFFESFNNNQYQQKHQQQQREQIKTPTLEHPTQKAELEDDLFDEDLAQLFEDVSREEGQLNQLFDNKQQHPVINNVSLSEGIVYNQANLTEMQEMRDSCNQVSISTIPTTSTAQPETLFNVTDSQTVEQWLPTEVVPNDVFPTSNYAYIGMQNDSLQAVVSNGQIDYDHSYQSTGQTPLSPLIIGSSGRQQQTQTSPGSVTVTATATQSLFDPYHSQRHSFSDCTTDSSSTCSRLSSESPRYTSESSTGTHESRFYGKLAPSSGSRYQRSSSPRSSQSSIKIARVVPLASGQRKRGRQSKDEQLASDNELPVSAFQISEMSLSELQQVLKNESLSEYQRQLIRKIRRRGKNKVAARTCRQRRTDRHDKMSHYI

[2] = biological target: Large T antigen (Simian virus 40, UniProt P03070); format: functional, Betapolyomavirus macacae;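 also: Confirmatory-stage PubChem screen for compounds that inhibit SV40 T antigen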
Sequence of Large T antigen (P03070 whole entry): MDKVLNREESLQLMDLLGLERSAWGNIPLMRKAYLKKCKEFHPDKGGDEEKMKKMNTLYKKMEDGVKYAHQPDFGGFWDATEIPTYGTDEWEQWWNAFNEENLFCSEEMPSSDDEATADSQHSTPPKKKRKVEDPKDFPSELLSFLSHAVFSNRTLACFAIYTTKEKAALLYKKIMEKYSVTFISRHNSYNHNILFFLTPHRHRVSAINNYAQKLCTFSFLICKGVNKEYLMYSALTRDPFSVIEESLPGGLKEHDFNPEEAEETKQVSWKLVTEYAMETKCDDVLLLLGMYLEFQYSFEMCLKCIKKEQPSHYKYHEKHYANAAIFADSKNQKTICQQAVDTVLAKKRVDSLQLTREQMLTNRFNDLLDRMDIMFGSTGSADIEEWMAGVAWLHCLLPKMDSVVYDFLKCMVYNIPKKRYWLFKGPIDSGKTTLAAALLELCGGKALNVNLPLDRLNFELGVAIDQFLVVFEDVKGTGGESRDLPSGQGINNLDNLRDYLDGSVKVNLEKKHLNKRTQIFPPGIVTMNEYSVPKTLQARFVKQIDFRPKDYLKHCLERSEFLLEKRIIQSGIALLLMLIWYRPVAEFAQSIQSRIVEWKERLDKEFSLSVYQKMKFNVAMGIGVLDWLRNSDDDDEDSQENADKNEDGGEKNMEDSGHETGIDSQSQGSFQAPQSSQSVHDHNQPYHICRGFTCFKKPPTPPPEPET

[3] = biological target: T2, Protein RecA (Mycobacterium tuberculosis, UniProt P9WHJ3); assay: Fluorescence Cell-Free Homogeneous Dose Retest to Identify Inhibitors of RecA-Intein Splicing Activity. [Related pubchem assays (depositor defined):AID2097, AID2223, AID489010, AID492950]; format: functional
T2 sequence (P9WHJ3 whole entry): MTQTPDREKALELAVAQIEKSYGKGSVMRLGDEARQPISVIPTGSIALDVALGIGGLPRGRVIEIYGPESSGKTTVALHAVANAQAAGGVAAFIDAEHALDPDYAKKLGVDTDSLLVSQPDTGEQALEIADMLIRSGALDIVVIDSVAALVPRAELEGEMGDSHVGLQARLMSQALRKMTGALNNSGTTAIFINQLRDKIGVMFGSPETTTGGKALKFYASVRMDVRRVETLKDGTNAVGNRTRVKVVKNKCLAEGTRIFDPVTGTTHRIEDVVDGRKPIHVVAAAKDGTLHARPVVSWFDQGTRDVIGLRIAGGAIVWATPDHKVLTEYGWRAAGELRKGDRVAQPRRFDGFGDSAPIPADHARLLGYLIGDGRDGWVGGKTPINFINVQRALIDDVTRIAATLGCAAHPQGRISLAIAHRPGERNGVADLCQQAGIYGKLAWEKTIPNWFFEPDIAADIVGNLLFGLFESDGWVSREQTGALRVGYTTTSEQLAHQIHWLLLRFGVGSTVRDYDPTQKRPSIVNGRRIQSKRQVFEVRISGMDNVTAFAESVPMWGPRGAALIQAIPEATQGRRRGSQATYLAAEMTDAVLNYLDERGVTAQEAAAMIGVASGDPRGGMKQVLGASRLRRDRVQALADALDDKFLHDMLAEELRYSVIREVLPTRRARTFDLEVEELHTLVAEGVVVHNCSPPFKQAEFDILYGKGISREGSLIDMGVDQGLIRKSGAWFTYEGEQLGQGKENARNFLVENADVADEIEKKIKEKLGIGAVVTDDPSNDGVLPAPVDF

[4] = biological target: T3, Replicative DNA helicase DnaB (Mycobacterium tuberculosis, UniProt P9WMR3); assay: DnaB intein splicing inhibitors, dose response, biochemical, cell-free fluorescence (AID 449749); format: functional
T3 sequence (P9WMR3 whole entry): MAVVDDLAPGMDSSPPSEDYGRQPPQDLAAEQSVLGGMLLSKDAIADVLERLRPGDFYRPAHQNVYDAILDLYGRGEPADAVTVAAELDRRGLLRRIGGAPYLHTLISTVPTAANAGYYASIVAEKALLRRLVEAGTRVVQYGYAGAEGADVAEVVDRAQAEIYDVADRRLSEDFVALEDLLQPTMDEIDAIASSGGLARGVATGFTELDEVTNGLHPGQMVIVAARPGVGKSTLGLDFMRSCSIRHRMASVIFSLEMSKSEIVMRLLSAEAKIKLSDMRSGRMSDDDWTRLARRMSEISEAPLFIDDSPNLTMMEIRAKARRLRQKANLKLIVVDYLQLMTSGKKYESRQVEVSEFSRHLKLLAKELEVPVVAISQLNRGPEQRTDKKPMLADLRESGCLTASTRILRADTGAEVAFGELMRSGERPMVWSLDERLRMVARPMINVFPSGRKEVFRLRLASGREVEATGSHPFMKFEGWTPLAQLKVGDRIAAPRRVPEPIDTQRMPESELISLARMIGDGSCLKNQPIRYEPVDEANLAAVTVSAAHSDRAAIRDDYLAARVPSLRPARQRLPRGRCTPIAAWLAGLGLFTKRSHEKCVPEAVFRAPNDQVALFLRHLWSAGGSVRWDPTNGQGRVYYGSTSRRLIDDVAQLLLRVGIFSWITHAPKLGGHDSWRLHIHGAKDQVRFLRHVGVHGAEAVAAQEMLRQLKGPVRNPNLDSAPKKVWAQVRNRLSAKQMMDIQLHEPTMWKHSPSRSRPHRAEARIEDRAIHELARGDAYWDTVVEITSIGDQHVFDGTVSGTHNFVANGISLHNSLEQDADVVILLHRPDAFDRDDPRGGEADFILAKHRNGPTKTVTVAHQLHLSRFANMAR

[5] = HepG2 cell cytotoxicity, dose response, cytotoxicity control for Shn3 inhibitor project, CellTiter-Glo, cherry-picked (AID 624134); format: functional, cell-based
[6] = Shn3 3'UTR reporter inhibitors, dose response, cell-based, Clone20 osteoblasts, firefly luciferase, cherry-picked (AID 624132); format: functional;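 also: firefly luciferase luminescence from reporter carrying the Shn3 3'UTR in osteoblasts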
[7] = Luminescence Cell-Based Dose Retest to Confirm Inhibitors of Cancer Stem Cells. [Related pubchem assays (depositor defined):AID2717, AID2721]; format: functional, Homo sapiens; conditions: Homo sapiens
[8] = control 3'UTR Renilla luciferase suppression, dose response, counter-screen for Shn3 inhibitor project, cell-based, Clone20-Shn3RL, cherry-picked (AID 624133); format: functional
[9] = biological target: T4, Zinc finger protein mex-5 (Caenorhabditis elegans, UniProt Q9XUB2); assay: MEX-5/TCR-2 RNA interaction inhibitors, dose response, biochemical, C. elegans, fluorescence polarization (AID 1960)
T4 sequence (Q9XUB2 whole entry): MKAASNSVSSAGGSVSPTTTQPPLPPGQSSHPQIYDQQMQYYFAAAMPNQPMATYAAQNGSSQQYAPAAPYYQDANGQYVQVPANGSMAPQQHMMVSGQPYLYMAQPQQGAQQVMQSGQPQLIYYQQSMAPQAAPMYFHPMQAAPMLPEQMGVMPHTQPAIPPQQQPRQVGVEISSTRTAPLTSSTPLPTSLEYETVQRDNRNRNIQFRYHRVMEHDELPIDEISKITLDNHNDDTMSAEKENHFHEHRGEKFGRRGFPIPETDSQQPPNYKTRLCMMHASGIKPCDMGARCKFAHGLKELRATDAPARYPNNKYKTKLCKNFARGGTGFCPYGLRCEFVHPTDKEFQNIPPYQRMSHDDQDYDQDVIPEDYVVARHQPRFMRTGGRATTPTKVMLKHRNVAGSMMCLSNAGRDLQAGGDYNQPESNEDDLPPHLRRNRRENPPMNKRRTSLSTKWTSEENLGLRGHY

[10] = biological target: T5, RNA-binding protein pos-1 (Caenorhabditis elegans, UniProt G5EF15); assay: inhibitors of POS-1/mex-3 RNA binding, dose response, biochemical, fluorescence polarization (AID 1964);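 also: purified POS-1 fused to maltose binding protein made in E. coli; potency of compounds blocking POS-1 binding to fluorescent RNA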
T5 sequence (G5EF15 whole entry): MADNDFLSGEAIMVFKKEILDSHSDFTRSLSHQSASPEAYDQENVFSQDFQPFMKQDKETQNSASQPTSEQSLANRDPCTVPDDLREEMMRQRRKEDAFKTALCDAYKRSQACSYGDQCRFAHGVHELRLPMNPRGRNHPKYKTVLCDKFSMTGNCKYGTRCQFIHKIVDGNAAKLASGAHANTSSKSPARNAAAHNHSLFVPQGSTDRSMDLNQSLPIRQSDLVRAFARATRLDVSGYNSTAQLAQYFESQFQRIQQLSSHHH

[11] = test system: P388/ADR; assay: cells; format: functional; conditions: Mus musculus
[12] = cells; format: functional, cell-based
[13] = biological target: FAD-linked sulfhydryl oxidase ALR (Homo sapiens, UniProt P55789); assay: inhibitors of human ALR sulfhydryl oxidase, dose response, biochemical, H2O2 detection, luminescence, cherry-pick (AID 493248)
Sequence of FAD-linked sulfhydryl oxidase ALR (P55789 whole entry): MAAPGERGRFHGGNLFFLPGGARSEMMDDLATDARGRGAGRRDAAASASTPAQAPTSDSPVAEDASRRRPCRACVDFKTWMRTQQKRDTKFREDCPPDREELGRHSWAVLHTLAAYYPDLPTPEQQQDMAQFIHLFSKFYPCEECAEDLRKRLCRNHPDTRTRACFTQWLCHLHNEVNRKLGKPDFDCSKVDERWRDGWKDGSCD

[14] = HEp-2 cell cytotoxicity, dose response, cytotoxicity control for RSV inhibitor project, HTS (AID 2410); format: functional; conditions: human respiratory syncytial virus
[15] = cells; format: functional, cell-based; remark: listed apart in the source

N#Cc1ccc(-c2nc3c4ccccc4ccn3c2Cc2ccccc2C(F)(F)F)cc1
IC50 [1]: > 100 µM (inactive)

O=C(O)[C@H]1CCCC[C@H]1C(=O)Nc1ccc(Nc2ccccc2)cc1
IC50 [2]: 9.46 µM (active)

CCOC(=O)c1c(C)[nH]c(C(=O)COC(=O)c2oc3ccc(OC)cc3c2C)c1C
IC50 [1]: > 100 µM (inactive)

Cc1onc(-c2ccccc2)c1-c1nc2cc(Cl)ccc2c(=O)o1
EC50 [3]: 158 µM (active)
AC50 [4]: 1.53 µM (active)

CC(=O)c1ccc(N2CCN(c3ccc(S(=O)(=O)NCCCN(C)C)cc3[N+](=O)[O-])CC2)cc1
AC50 [5]: 27.3 µM (active)
AC50 [6]: 3.78 µM (active)
AC50 [7]: 1.41 µM (active)
AC50 [8]: 36.7 µM (active)

N=c1c(C(=O)NC2CCCCC2)cc2c(=O)n3ccccc3nc2n1CCc1ccccc1
EC50 [9]: 16.1 µM (active)
EC50 [10]: 15.2 µM (active)

CCOc1ccc(CN(C)c2ccc(S(=O)(=O)N3CCN(C)CC3)cc2[N+](=O)[O-])cc1OC
AC50 [5]: 43 µM (active)
AC50 [6]: 3.38 µM (active)
AC50 [8]: 5.91 µM (active)

COC(=O)C1=C(C)N=c2s/c(=C/c3cccs3)c(=O)n2C1c1ccc(F)cc1 (stereo not drawn)
IC50 [1]: > 100 µM (inactive)

Cc1n[nH]c(S/C(=C/c2ccc(-c3cccc(Cl)c3)o2)C(=O)O)n1
EC50 [9]: 69.5 µM (active)
EC50 [10]: > 300 µM (not active)

NC(=Nc1ccc(N)cc1)C(N)=Nc1ccc(N)cc1
EC50 [9]: 42.8 µM (active)
EC50 [10]: > 300 µM (not active)

O=Cc1coc2c(ccc3ccccc32)c1=O
IC50 [2]: 9.01 µM (active)

C=CSc1sc(Cl)c(N2CCOCC2)c1[N+](=O)[O-]
EC50 [3]: 54.6 µM (active)
AC50 [4]: 11.1 µM (active)

COc1cc(/C=C/C(=O)OCC(=O)N2CC(=O)Nc3ccccc32)ccc1O
IC50 [2]: 12.6 µM (active)

CC(C)(C)OC(=O)NCCCCC1=CC2=CC(=O)C(C)(OC(=O)c3ccco3)C(=O)C2=CO1 (stereo not drawn)
EC50 [9]: 30.3 µM (active)
EC50 [10]: 35.5 µM (active)

CCOC(=O)Nc1nc(-c2ccc(Cl)cc2Cl)cs1
IC50 [1]: 21.4 µM (active)

Cc1cc(O)cc2c1C(=O)/C(=C/c1ccco1)O2
EC50 [9]: > 300 µM (not active)
EC50 [10]: 15.8 µM (active)

Nc1cnc(Nc2ccc(Br)cc2)nc1N
IC50 [2]: 22.3 µM (active)

Cc1ccc2[nH]c3c(c2c1)CN(C(=O)CN1CCN(C(=O)c2ccco2)CC1)CC3
EC50 [9]: 68 µM (active)
EC50 [10]: 112 µM (active)

Cc1cc2c(c3oc(C4(C)OC4C4OC4C)cc(=O)c13)C(=O)c1c(O)c(C3CC(C)(N(C)C)C(O)C(C)O3)cc(C3CC(N(C)C)C(O)C(C)O3)c1C2=O (stereo not drawn)
GI50 [11]: 2.5 nM (active)

ClCCN(CCCl)c1ccc(C=Cc2ccncn2)cc1
IC50 [1]: > 100 µM (inactive)

Clc1cccc(CSc2nc3cc[nH]cc-3n2)c1
EC50 [9]: > 300 µM (not active)
EC50 [10]: > 300 µM (not active)

O=C(CSc1cccc2cccnc12)N/N=C/c1ccc(O)cc1
IC50 [2]: 11.6 µM (active)

COc1ccc(/C=N/NC(=O)c2ccoc2C)cc1O
EC50 [12]: 6.49 µM (active)
AC50 [13]: 1.2 µM (active)
CC50 [14]: 18.5 µM (active)
EC50 [15]: > 350 µM (not active)
IC50 [2]: 9.6 µM (active)

O=c1c2ccccc2nc2n1C(CSCc1ccc(Cl)cc1Cl)CS2 (stereo not drawn)
AC50 [5]: 46.2 µM (active)
AC50 [6]: 1.45 µM (active)
AC50 [8]: 3.48 µM (active)

COc1ccc2oc(C(F)(F)C(F)F)cc(=O)c2c1
IC50 [1]: > 100 µM (inactive)

O=C1CSC(=S)N1N1C(=O)c2cccc([N+](=O)[O-])c2C1=O
EC50 [9]: 24.8 µM (active)
EC50 [10]: 24.9 µM (active)

CNc1c(N)n(Cc2ccccc2)c(=O)[nH]c1=O
EC50 [9]: 92.1 µM (inconclusive)
EC50 [10]: > 300 µM (not active)

COc1ccc([N+](=O)[O-])cc1NC(=O)C(C)OC(=O)CSC(C)C(=O)Nc1cc(C)on1 (stereo not drawn)
IC50 [1]: > 100 µM (inactive)

O=C1c2ccccc2NC2(CCCCC2)N1c1ccc(O)cc1
IC50 [2]: 12.5 µM (active)

O=S(=O)(c1cccc2c(S(=O)(=O)N3CCCC3)cccc12)N1CCCC1
IC50 [1]: > 100 µM (inactive)

CCc1ccc(NC(=O)C(=O)N/N=C(\C)CC(=O)Nc2ccccn2)cc1
EC50 [3]: > 380 µM (inactive)
AC50 [4]: > 380 µM (inactive)

COc1ccccc1Nc1nc2nonc2nc1N1CCCCC1C (stereo not drawn)
EC50 [9]: > 300 µM (not active)
EC50 [10]: 95.5 µM (active)

CC(C)NC(=N)NC(=N)Nc1ccc(Cl)cc1 [PROGUANIL HYDROCHLORIDE]
AC50 [6]: 0.37 µM (active)
AC50 [8]: 0.403 µM (active)
